In ChEMBL document CHEMBL1147341, “Unprecedented oxylipins from the marine green alga Acrosiphonia coalita” (J Nat Prod, 1993):
The source made the active and inactive calls. No cut-off for these calls is given here.

Tested on: Candida albicans
Assay: Antifungal activity against Candida albicans at 100 ug/disk by sensitive disk method
Format: functional, organism-based

CC[C@H](O)/C=C/C=C/C=C/C=O
Activity: Active
